The NIST ThermoML archive (doi:10.1021/je300974g)
± gives the expanded uncertainty stated by the source.

What was measured:
[1] = 101.33 kPa, Liquid, Vibrating tube method
[2] = xn = mol fraction of the nth substance listed; settings: 101 kPa, Liquid, Vibrating tube method

CCNC=O [N-ethylformamide]
[1]
Settings | mass density [kg/m3]
293.15 K | 951.59 ± 0.24
298.15 K | 947.48 ± 0.24
303.15 K | 943.29 ± 0.24
308.15 K | 939.04 ± 0.24
313.15 K | 934.78 ± 0.24

CCNC=O [N-ethylformamide] + CCCOC(C)=O
mass density [kg/m3], [2]
Settings | x1 = 0.1294 | x1 = 0.2456 | x1 = 0.3565 | x1 = 0.4694 | x1 = 0.5596 | x1 = 0.6587 | x1 = 0.7478 | x1 = 0.8363 | x1 = 0.9182
293.15 K | 892.25 ± 0.19 | 899.54 ± 0.19 | 906.52 ± 0.2 | 913.89 ± 0.21 | 919.91 ± 0.21 | 926.72 ± 0.22 | 933 ± 0.23 | 939.47 ± 0.24 | 945.56 ± 0.25
298.15 K | 887.29 ± 0.19 | 894.73 ± 0.19 | 901.8 ± 0.2 | 909.26 ± 0.21 | 915.35 ± 0.21 | 922.25 ± 0.22 | 928.63 ± 0.23 | 935.19 ± 0.24 | 941.36 ± 0.25
303.15 K | 882.35 ± 0.19 | 889.93 ± 0.19 | 897.09 ± 0.2 | 904.67 ± 0.21 | 910.86 ± 0.21 | 917.78 ± 0.22 | 924.29 ± 0.23 | 930.93 ± 0.24 | 937.11 ± 0.25
308.15 K | 877.39 ± 0.19 | 885.05 ± 0.2 | 892.4 ± 0.2 | 900.06 ± 0.21 | 906.31 ± 0.21 | 913.38 ± 0.22 | 919.92 ± 0.23 | 926.57 ± 0.24 | 932.85 ± 0.25
313.15 K | 872.28 ± 0.19 | 880.14 ± 0.2 | 887.6 ± 0.2 | 895.34 ± 0.21 | 901.71 ± 0.21 | 908.84 ± 0.22 | 915.46 ± 0.23 | 922.22 ± 0.24 | 928.54 ± 0.25

C1CCOCC1 [tetrahydropyran]
[1]
Settings | mass density [kg/m3]
293.15 K | 884.08 ± 0.16
298.15 K | 878.95 ± 0.17
303.15 K | 873.79 ± 0.17
308.15 K | 868.67 ± 0.17
313.15 K | 863.43 ± 0.17

CCCC(C)=O [pentan-2-one]
[1]
Settings | mass density [kg/m3]
293.15 K | 807.47 ± 0.18
298.15 K | 802.46 ± 0.18
303.15 K | 797.53 ± 0.18
308.15 K | 792.52 ± 0.18
313.15 K | 787.44 ± 0.18

CCCOC(C)=O [propyl ethanoate]
[1]
Settings | mass density [kg/m3]
293.15 K | 887.97 ± 0.18
298.15 K | 882.21 ± 0.18
303.15 K | 876.54 ± 0.18
308.15 K | 870.81 ± 0.18
313.15 K | 864.95 ± 0.18
